Experimental data published in patent US4076702A, “Dipeptide derivatives and their production” (Shionogi & Co., Ltd., priority 1974, dated 1978).

How the values were obtained:
DS male mice [1] = experiment: Rotarod performance activity; assay type: in vivo; conditions: fall from rod within less than 2 minutes counted as effective, 10 mice per dose; for ED50: Mus musculus
Procedure: (3) Rotarod performance activity
This test was measured on DS male mice. The mouse was put on a scraped rod of wood, 3 cm in diameter, turning at the rate of five rotations per minute. The mice that could remain on the rod for three or more minutes in successive trials were selected and placed in a group of 10 mice for each dose. If the mouse fell down from the rod within less than 2 minutes, the test compound was considered to be effective. Results were shown by ED50 [Dunham, et al.: J. Am. Pharm. Assoc., 46, 208 (1957)].

DS male mice [2] = experiment: Anti-pentylenetetrazol activity; assay type: in vivo; conditions: test compound orally 60 minutes prior to 125 mg/kg s.c. pentylenetetrazol, complete protection against mortality, observed two hours; for ED50: Mus musculus
Source text: (1) Anti-pentylenetetrazol activity:
The convulsions were disregarded.

DS male mice [3] = experiment: Taming activity (inhibition of electroshock-induced fighting response); assay type: in vivo; conditions: compound given 60 minutes prior, 5 pairs per group; for ED50: Mus musculus
Procedure: This test was measured on DS male mice. […] These pairs of mice were selected in the morning and used for drug test in the afternoon. The test compound was administered to both mice of the pairs 60 minutes prior to the experiment. Results were obtained as the mean percentage of inhibition of fighting response in a group of 5 pairs and shown by ED50 [Tedeschi, et al.: J. Pharmacol Exp. Thev., 125, 28-34 (1959)].

DS male mice [4] = conditions: oral single dose, observed 72 hours, Bliss method
Procedure: The test compound was orally administered to DS male mice in different single doses. For each dose, 10 mice were used, their weight ranging from 20 to 23 grams. […] The mortality was calculated by the Bliss method [Bliss: Ann.

Structure (SMILES) | ED50 (DS male mice [1]) | ED50 (DS male mice [2]) | ED50 (DS male mice [3]) | Acute toxicity LD50 (DS male mice [4]) | Rotarod performance ED50 (DS male mice [1]) | Anti-pentylenetetrazol activity, ED50 (DS male mice [2]) | Taming activity ED50 (DS male mice [3])
CNC1=Nc2ccc(Cl)cc2C(c2ccccc2)=[N+]([O-])C1 [Compound No. 4, Chlordiazepoxide, reference compound] | 50 mg/kg | 3.7 mg/kg | 24 mg/kg | 1090 mg/kg |  |  | 
CN(C(=O)CNC(=O)CN)c1ccc(Cl)cc1C(=O)c1ccccc1 [Compound No. 1, 2-benzoyl-4-chloro-N-methyl-N^α -glycyl-glycinanilide] |  |  |  | 1309 mg/kg | 36.6 mg/kg | 1.0 mg/kg | 10.5 mg/kg
CN(C(=O)CNC(=O)CN)c1ccc(Cl)cc1C(=O)c1ccccc1F.Cl [Compound No. 3, 2-o-fluorobenzoyl-4-chloro-N-methyl-N^α -glycyl-glycinanilide hydrochloride] |  |  |  | > 1000 mg/kg | 17.0 mg/kg | 0.33 mg/kg | 1.6 mg/kg
CN1C(=O)CN=C(c2ccccc2)c2cc(Cl)ccc21 [Compound No. 5, Diazepam, reference compound] | 9.03 mg/kg | 1.19 mg/kg | 6 mg/kg |  |  |  | 
CN(C(=O)CNC(=O)CN)c1ccc(Cl)cc1C(=O)c1ccccc1Cl.O [Compound No. 2, 2-o-chlorobenzoyl-4-chloro-N-methyl-N^α -glycyl-glycinanilide hydrate] |  |  |  | 1255 mg/kg | 27.7 mg/kg | 0.58 mg/kg | 3.0 mg/kg
